Reference: patent US10603335B2, “Cancer treatment combination compositions, methods and uses” (Board of Supervisors of Louisiana State University and …, priority 2016, dated 2020)

Experiments:
Panc-1 cells spheroids = experiment: 3D spheroid growth (IncuCyte ZOOM), Panc-1; assay type: cell-based
Experimental: (§1) A protocol that enables the growth of identical size single cancer cell spheroids in Matrigel in 96 well plates has been developed.
(§2) Panc-1 and Mia-Paca-2 cells were grown in 10% FBS DMEM. Cells were collected after trypsinization and resuspended in phenol-red free DMEM with 10% FBS. Cells were labeled with CellTracker Red (Life Techmologies) for 5 minutes. After labeling cells were washed with PBS and transfer into 96-well Corning 7007 ULA round bottom plates at 1,000 cells/well in 100 μl phenol-red free media with 10% FBS and 5% Matrigel. […] Spheroids were grown at 37° C. and 5% CO2 in IncuCyte ZOOM (Essen Bioscience). Images were acquired every 4 h for a period of 120 h post-treatment and software analysis was design to identify the red object in the well. The data were expressed as fold increase in spheroids size at the end of the treatment using the “average red object area in the well” as determined by the IncuCyte software analysis. Reproducibility was confirmed in three independent experiments. Spheroids grew at a uniform rate (FIG. 1).

Mia-PaCa-2 spheroids = experiment: 3D spheroid growth (IncuCyte ZOOM), Mia-PaCa-2; assay type: cell-based, human; conditions: for size of the spheroids: MiaPaca-2, gemcitabine 0.5, 1.0, 5.0 μM, LHRH-curcumin 10, 20 μM, 5 days
Experimental: as §1, §2

AsPC-1 spheroids = experiment: 3D spheroid growth (IncuCyte ZOOM), AsPC-1; assay type: cell-based; conditions: gemcitabine 0.5, 1.0, 5.0 μM, LHRH-curcumin 10, 20 μM, 5 days
Experimental: as §2
Panc-1, Mia-Paca-2 and AsPC-1 spheroids were formed in 96-well round bottom plates as described. […] Media alone was used as control. The spheroids were grown for 5 days before quantification. Both gemcitabine and LHRH-curcumin were diluted in water.

[1] = system: cleaved PARP, XIAP and cIAP2 in MiaPaca-2 cells; experiment: Western blot of apoptosis markers and inhibitors of apoptosis, MiaPaca-2; assay type: cell-based, human; conditions: for apoptosis marker cleaved PARP: 24 h post-treatment, LHRH-curcumin 10-100 uM, gemcitabine 1-20 uM
Experimental: (§3) Pancreatic cells were collected after trypsinization and seeded in 12-well plates for 24 h before treatments. Treatments were performed as described in the Figure legends. Following treatment, whole cell lysates were collected in Laemmli buffer and analyzed by Western blot. The following primary antibodies were used: XIAP, c-IAP2, cleaved PARP, Caspase-3 (all from Cell Signaling), actin (Santa Cruz) and LHRHR (Abcam).
(§4) Western blot analysis. Actin, GAPDH and Ponceau staining were used as loading controls. Gemcitabine was diluted in water. Curcumin and LHRH-curcumin were diluted in DMSO. Cells were treated as follows:
Western blot analysis. Actin, GAPDH and Ponceau staining were used as loading controls. Gemcitabine was diluted in water. Curcumin and LHRH-curcumin were diluted in DMSO. The cells were treated as follows:
Western blot analysis. Actin was used as loading control. Both gemcitabine and LHRH-curcumin were diluted in water.

[2] = system: cleaved PARP, XIAP and cIAP2 in AsPC-1 cells; experiment: Western blot of apoptosis markers and inhibitors of apoptosis, AsPC-1; assay type: cell-based; conditions: for XIAP and c-IAP2 protein levels: 24 h; for apoptosis marker cleaved PARP: 24 h post-treatment, LHRH-curcumin 10-100 uM, gemcitabine 1-20 uM
Experimental: as §3, §4
(§5) Western blot analysis. Actin, GAPDH and Ponceau staining were used as loading controls. Gemcitabine was diluted in water. Curcumin and LHRH-curcumin were diluted in DMSO.

[3] = system: cleaved PARP, XIAP and cIAP2 in BxPC-3 cells; experiment: Western blot of apoptosis markers and inhibitors of apoptosis, BxPC-3; assay type: cell-based; conditions: for XIAP and c-IAP2 protein levels: 24 h; for apoptosis marker cleaved PARP: 24 h post-treatment, LHRH-curcumin 10-100 uM, gemcitabine 1-20 uM
Experimental: as §3, §4, §5

PATX55 tissue slices = experiment: Live Tissue Sensitivity Assay (LTSA), PATX55; assay type: cell-based; conditions: 72 hours
Experimental: (§6) Animal experiment protocol was reviewed and approved by The University of Texas MD Anderson Cancer Center (Houston, Tex.) institutional review board and in accordance with the Guidelines for the Care and Use of Laboratory Animals published by the National Institutes of Health. PDXs were grown from cryopreserved early passages of PDXs in nude mice as described in previous publications (Kim M P, et al, Nat Protoc 2009; 4(11): 1670-80). Briefly, tumor samples stored in CryoStor™ CS10 storage medium were recovered and cut into about 2 mm3 fragments, soaked in Matrigel, and implanted into the subcutaneous space of Balb/c nude mice (5 mice/PDX). Tumors were harvested when they reach 1.5 cm in diameter for generating tissue slices for drug testing with quadruplicates.
(§7) About 100 tissue slices were produced from 1 tumorgraft with tissue slicer and arrayed in 96-well plates with previously established method (Roife D, et al, Clin Cancer Res 2016). […] Same volume of medium with 0.1% DMSO was added into control wells. After 72 hours, tissue viabilities were measured with PrestoBlue method. Viability inhibition will be calculated through normalization of viabilities of tissue slices treated with inhibitor against the viability of control (DMSO treated) slices. Inhibition of viability was further analyzed with t-test. […]

PATX153 tissue slices = experiment: Live Tissue Sensitivity Assay (LTSA), PATX153; assay type: cell-based; conditions: 72 hours
Experimental: as §6, §7

PATX113 tissue slices = experiment: Live Tissue Sensitivity Assay (LTSA), PATX113; assay type: cell-based; conditions: 72 hours
Experimental: as §6, §7

PATX112 tissue slices = experiment: Live Tissue Sensitivity Assay (LTSA), PATX112; assay type: cell-based; conditions: 72 hours
Experimental: as §6, §7

PATX110 tissue slices = experiment: Live Tissue Sensitivity Assay (LTSA), PATX110; assay type: cell-based; conditions: 72 hours
Experimental: as §6, §7

PATX176 tissue slices = experiment: Live Tissue Sensitivity Assay (LTSA), PATX176; assay type: cell-based; conditions: 72 hours
Experimental: as §6, §7

PATX102 tissue slices = experiment: Live Tissue Sensitivity Assay (LTSA), PATX102; assay type: cell-based; conditions: 72 hours
Experimental: as §6, §7

PATX141 tissue slices = experiment: Live Tissue Sensitivity Assay (LTSA), PATX141; assay type: cell-based; conditions: 72 hours
Experimental: as §6, §7

PATX148 tissue slices = experiment: Live Tissue Sensitivity Assay (LTSA), PATX148; assay type: cell-based; conditions: 72 hours
Experimental: as §6, §7

PATX92 tissue slices = experiment: Live Tissue Sensitivity Assay (LTSA), PATX92; assay type: cell-based; conditions: 72 hours
Experimental: as §6, §7

PATX50 tissue slices = experiment: Live Tissue Sensitivity Assay (LTSA), PATX50; assay type: cell-based; conditions: 72 hours
Experimental: as §6, §7

PATX118 tissue slices = experiment: Live Tissue Sensitivity Assay (LTSA), PATX118; assay type: cell-based; conditions: 72 hours
Experimental: as §6, §7

[4] = gemcitabine 0.5, 1.0, 5.0 μM, LHRH-curcumin 10, 20 μM, 5 days
[5] = 24 h, curcumin, LHRH-curcumin 50 uM and 100 uM alone, gemcitabine alone
[6] = curcumin, LHRH-curcumin 50 uM and 100 uM alone, gemcitabine alone
[7] = 50 uM in the presence of gemcitabine (5 uM)

SMILES: Nc1ccn([C@@H]2O[C@H](CO)[C@@H](O)C2(F)F)c(=O)n1 [gemcitabine, 2′,2′-difluoro 2′deoxycytidine, reference compound]
- size of the spheroids (Panc-1 cells spheroids; [4]): decrease the size of the spheroids
- size of the spheroids (Mia-PaCa-2 spheroids): decrease the size of the spheroids
- size of the spheroids (AsPC-1 spheroids): decrease the size of the spheroids
- XIAP and c-IAP2 protein levels [1, 5]: doesn't affect XIAP and c-IAP2 levels
- apoptosis marker cleaved PARP ([1]; curcumin): no cleaved PARP was detected
- XIAP and c-IAP2 protein levels [2, 6]: doesn't affect XIAP and c-IAP2 levels
- apoptosis marker cleaved PARP ([2]; curcumin): Low levels of cleaved PARP was detected
- XIAP and c-IAP2 protein levels [3, 6]: doesn't affect XIAP and c-IAP2 levels
- apoptosis marker cleaved PARP ([3]; curcumin): Low levels of cleaved PARP was detected
- tissue slice viability (PATX55 tissue slices; Gem 10 μM): 95.45
- tissue slice viability (PATX153 tissue slices; Gem 10 μM): 96.86
- tissue slice viability (PATX113 tissue slices; Gem 10 μM): 82.19
- tissue slice viability (PATX112 tissue slices; Gem 10 μM): 91.71
- tissue slice viability (PATX110 tissue slices; Gem 10 μM): 100.20
- tissue slice viability (PATX176 tissue slices; Gem 10 μM): 88.23
- tissue slice viability (PATX102 tissue slices; Gem 10 μM): 99.65
- tissue slice viability (PATX141 tissue slices; Gem 10 μM): 105.35
- tissue slice viability (PATX148 tissue slices; Gem 10 μM): 99.55
- tissue slice viability (PATX92 tissue slices; Gem 10 μM): 85.63
- tissue slice viability (PATX50 tissue slices; Gem 10 μM): 104.96
- tissue slice viability (PATX118 tissue slices; Gem 10 μM): 97.56

SMILES: COc1cc(/C=C/C(=O)CC(=O)/C=C/c2ccc(OC(=O)CCCC(=O)NCCCC[C@@H](NC(=O)[C@H](Cc3ccc(O)cc3)NC(=O)[C@H](CO)NC(=O)[C@H](Cc3c[nH]c4ccccc34)NC(=O)[C@H](Cc3c[nH]cn3)NC(=O)[C@@H]3CCC(=O)N3)C(=O)N[C@@H](CC(C)C)C(=O)N[C@@H](CCCNC(=N)N)C(=O)N3CCC[C@H]3C(=O)NCC(N)=O)c(OC)c2)ccc1O [LHRH-curcumin, [DLys6]-LHRH-Curcumin]
- effectiveness on spheroids growth versus curcumin (Panc-1 cells spheroids; 3D culture, 10, 20 and 30 μM, 120 h): more effective than curcumin
- size of the spheroids (Panc-1 cells spheroids; 10, 20 and 30 μM, 120 h post-treatment): significantly decreased the size of the spheroids formed by Panc-1 cells in a dose-dependent manner
- spheroids growth (Panc-1 cells spheroids; LHRH 30 μM, LHRH-curcumin 30 μM): superior to that of LHRH
- size of the spheroids (Panc-1 cells spheroids; [4]): decrease the size of the spheroids
- efficiency on spheroids growth, Panc-1 versus Mia-PaCa-2 (Mia-PaCa-2 spheroids; 10, 20 and 30 μM, 120 h): more efficient on Panc-1 cells than Mia-PaCa-2 cells
- size of the spheroids (Mia-PaCa-2 spheroids): decrease the size of the spheroids
- size of the spheroids (AsPC-1 spheroids): decrease the size of the spheroids
- XIAP and c-IAP2 protein levels ([1]; 24 h, 50 uM in the presence of gemcitabine (5 uM)): down-regulated
- XIAP and c-IAP2 protein levels [1, 5]: down-regulated
- apoptosis marker cleaved PARP ([1]; curcumin): initiate apoptosis as illustrated by the presence of cleaved PARP
- XIAP and c-IAP2 protein levels ([1]; 72 h, LHRH-curcumin 10 uM and 20 uM in the presence of gemcitabine (5 uM and 10 uM)): down-regulated
- XIAP and c-IAP2 protein levels [2, 7]: down-regulated
- XIAP and c-IAP2 protein levels [2, 6]: down-regulated
- apoptosis marker cleaved PARP ([2]; curcumin): initiate apoptosis as illustrated by the presence of cleaved PARP
- XIAP and c-IAP2 protein levels [3, 7]: down-regulated
- XIAP and c-IAP2 protein levels [3, 6]: down-regulated
- apoptosis marker cleaved PARP ([3]; curcumin): initiate apoptosis as illustrated by the presence of cleaved PARP
- Sensitivity To LHRH-C (PATX55 tissue slices; single agent): Sensitive (The tissue was defined as sensitive to the treatment if both p<0.05 and at least 30% of tissue slice viability on average was inhibited)
- Sensitivity To LHRH-C (PATX153 tissue slices; single agent): Sensitive (The tissue was defined as sensitive to the treatment if both p<0.05 and at least 30% of tissue slice viability on average was inhibited)
- Sensitivity To LHRH-C (PATX113 tissue slices; single agent): Sensitive (The tissue was defined as sensitive to the treatment if both p<0.05 and at least 30% of tissue slice viability on average was inhibited)
- Sensitivity To LHRH-C (PATX112 tissue slices; single agent): Sensitive (The tissue was defined as sensitive to the treatment if both p<0.05 and at least 30% of tissue slice viability on average was inhibited)
- Sensitivity To LHRH-C (PATX110 tissue slices; single agent): Sensitive (The tissue was defined as sensitive to the treatment if both p<0.05 and at least 30% of tissue slice viability on average was inhibited)
- Sensitivity To LHRH-C (PATX176 tissue slices; single agent): Resistant
- Sensitivity To LHRH-C (PATX102 tissue slices; single agent): Resistant
- Sensitivity To LHRH-C (PATX141 tissue slices; single agent): Resistant
- Sensitivity To LHRH-C (PATX148 tissue slices; single agent): Resistant
- Sensitivity To LHRH-C (PATX92 tissue slices; single agent): Resistant
- Sensitivity To LHRH-C (PATX50 tissue slices; single agent): Resistant
- Sensitivity To LHRH-C (PATX118 tissue slices; single agent): Resistant
